Results published in the NIST ThermoML archive (doi:10.1016/j.jct.2005.10.004).
Several values for one entry are separate records, joined by “and”; a condition that tells them apart may be missing. Identical values can stand only once.

Experiment: xn = mol fraction of the nth substance listed
Details: Gas, Buoyancy - hydrostatic balance with magnetic suspension - one sinker

N#N [nitrogen] + C
Details | mass density
240 K, 2107.5 kPa, x2 = 0.8998 | 19.5904 kg/m3 and 19.5908 kg/m3
240 K, 4055.5 kPa, x2 = 0.8998 | 40.6283 kg/m3
240 K, 8017.2 kPa, x2 = 0.8 | 96.5565 kg/m3
240 K, 8864.8 kPa, x2 = 0.8 | 109.578 kg/m3
240 K, 12048 kPa, x2 = 0.8 | 159.33 kg/m3
240 K, 13511 kPa, x2 = 0.8998 | 181.648 kg/m3
240.01 K, 1951.7 kPa, x2 = 0.8 | 19.1493 kg/m3 and 19.149 kg/m3
240.01 K, 3991.5 kPa, x2 = 0.8 | 41.8987 kg/m3
240.01 K, 3991.7 kPa, x2 = 0.8 | 41.901 kg/m3
240.01 K, 6011.9 kPa, x2 = 0.8 | 67.6707 kg/m3
240.01 K, 6012.2 kPa, x2 = 0.8 | 67.6768 kg/m3
240.01 K, 7076 kPa, x2 = 0.8 | 82.6152 kg/m3
240.01 K, 8017.6 kPa, x2 = 0.8 | 96.5609 kg/m3
240.01 K, 8026.3 kPa, x2 = 0.8998 | 94.9591 kg/m3
240.01 K, 10028 kPa, x2 = 0.8998 | 127.626 kg/m3
240.01 K, 10029 kPa, x2 = 0.8998 | 127.633 kg/m3
240.01 K, 10372 kPa, x2 = 0.8 | 133.317 kg/m3 and 133.315 kg/m3
240.01 K, 12048 kPa, x2 = 0.8 | 159.332 kg/m3
240.01 K, 12090 kPa, x2 = 0.8998 | 160.982 kg/m3
240.01 K, 13638 kPa, x2 = 0.8 | 182.319 kg/m3
240.01 K, 15026 kPa, x2 = 0.8998 | 200.798 kg/m3
240.02 K, 6035.6 kPa, x2 = 0.8998 | 65.6527 kg/m3
249.91 K, 2443.9 kPa, x2 = 0.8 | 23.1504 kg/m3
249.91 K, 2444.1 kPa, x2 = 0.8 | 23.1522 kg/m3
249.91 K, 2444.9 kPa, x2 = 0.8 | 23.1598 kg/m3
249.91 K, 5015.8 kPa, x2 = 0.8 | 51.0598 kg/m3
249.91 K, 5016 kPa, x2 = 0.8 | 51.0618 kg/m3
249.91 K, 7570.5 kPa, x2 = 0.8 | 82.6548 kg/m3
249.92 K, 7570.8 kPa, x2 = 0.8 | 82.6605 kg/m3
249.92 K, 8909.9 kPa, x2 = 0.8 | 100.551 kg/m3
249.92 K, 8910.5 kPa, x2 = 0.8 | 100.56 kg/m3
249.92 K, 8911 kPa, x2 = 0.8 | 100.565 kg/m3
249.93 K, 10917 kPa, x2 = 0.8 | 128.204 kg/m3
249.93 K, 12900 kPa, x2 = 0.8 | 155.107 kg/m3
249.93 K, 12901 kPa, x2 = 0.8 | 155.123 kg/m3
249.93 K, 14257 kPa, x2 = 0.8 | 172.455 kg/m3
249.93 K, 14258 kPa, x2 = 0.8 | 172.479 kg/m3
249.93 K, 16938 kPa, x2 = 0.8 | 202.973 kg/m3
249.93 K, 16952 kPa, x2 = 0.8 | 203.124 kg/m3
249.94 K, 9596 kPa, x2 = 0.8 | 109.925 kg/m3
249.94 K, 10910 kPa, x2 = 0.8 | 128.101 kg/m3
249.99 K, 2003.4 kPa, x2 = 0.8998 | 17.6409 kg/m3
249.99 K, 2056.7 kPa, x2 = 0.8 | 19.2703 kg/m3
249.99 K, 3994.1 kPa, x2 = 0.8998 | 37.4833 kg/m3
249.99 K, 3994.2 kPa, x2 = 0.8998 | 37.4837 kg/m3
249.99 K, 4008 kPa, x2 = 0.8 | 39.6397 kg/m3
249.99 K, 6005.8 kPa, x2 = 0.8998 | 60.2899 kg/m3
249.99 K, 6017.6 kPa, x2 = 0.8 | 62.9683 kg/m3
249.99 K, 7544.1 kPa, x2 = 0.8 | 82.2685 kg/m3
249.99 K, 7544.6 kPa, x2 = 0.8 | 82.2725 kg/m3
249.99 K, 8074.6 kPa, x2 = 0.8998 | 86.7809 kg/m3
249.99 K, 8074.9 kPa, x2 = 0.8998 | 86.7846 kg/m3
249.99 K, 8075.1 kPa, x2 = 0.8998 | 86.7862 kg/m3
249.99 K, 10120 kPa, x2 = 0.8998 | 115.3 kg/m3
249.99 K, 10121 kPa, x2 = 0.8 | 117.092 kg/m3
249.99 K, 12763 kPa, x2 = 0.8998 | 152.294 kg/m3
249.99 K, 13368 kPa, x2 = 0.8 | 161.09 kg/m3
249.99 K, 13369 kPa, x2 = 0.8 | 161.093 kg/m3
250 K, 1972.2 kPa, x2 = 0.8998 | 17.3493 kg/m3
250 K, 2229 kPa, x2 = 0.8998 | 19.7632 kg/m3
250 K, 12762 kPa, x2 = 0.8998 | 152.28 kg/m3 and 152.282 kg/m3
250 K, 15168 kPa, x2 = 0.8998 | 182.264 kg/m3
250 K, 18609 kPa, x2 = 0.8998 | 216.303 kg/m3
274.8 K, 11276 kPa, x2 = 0.8 | 109.07 kg/m3
274.81 K, 2552.2 kPa, x2 = 0.8 | 21.5902 kg/m3
274.81 K, 2552.3 kPa, x2 = 0.8 | 21.5893 kg/m3
274.81 K, 5055.3 kPa, x2 = 0.8 | 44.7483 kg/m3
274.81 K, 5055.4 kPa, x2 = 0.8 | 44.7496 kg/m3
274.81 K, 7550.3 kPa, x2 = 0.8 | 69.666 kg/m3 and 69.6651 kg/m3
274.81 K, 7562.1 kPa, x2 = 0.8 | 69.788 kg/m3
274.81 K, 7562.6 kPa, x2 = 0.8 | 69.7929 kg/m3
274.81 K, 9501.7 kPa, x2 = 0.8 | 90.1191 kg/m3
274.81 K, 9502.3 kPa, x2 = 0.8 | 90.1254 kg/m3
274.81 K, 10330 kPa, x2 = 0.8 | 98.956 kg/m3
274.81 K, 10337 kPa, x2 = 0.8 | 99.0305 kg/m3
274.81 K, 11275 kPa, x2 = 0.8 | 109.063 kg/m3
274.81 K, 12889 kPa, x2 = 0.8 | 126.201 kg/m3
274.81 K, 12890 kPa, x2 = 0.8 | 126.206 kg/m3
274.81 K, 14325 kPa, x2 = 0.8 | 141.105 kg/m3
274.81 K, 14327 kPa, x2 = 0.8 | 141.128 kg/m3
274.81 K, 15731 kPa, x2 = 0.8 | 155.191 kg/m3
274.81 K, 15733 kPa, x2 = 0.8 | 155.216 kg/m3
274.81 K, 16797 kPa, x2 = 0.8 | 165.435 kg/m3
274.81 K, 16816 kPa, x2 = 0.8 | 165.609 kg/m3
274.82 K, 8425.3 kPa, x2 = 0.8 | 78.7622 kg/m3
274.82 K, 9439.5 kPa, x2 = 0.8 | 89.4646 kg/m3
274.82 K, 11275 kPa, x2 = 0.8 | 109.065 kg/m3
274.82 K, 11277 kPa, x2 = 0.8 | 109.088 kg/m3
274.82 K, 12811 kPa, x2 = 0.8 | 125.374 kg/m3
274.99 K, 2012.7 kPa, x2 = 0.8 | 16.8448 kg/m3
274.99 K, 2211 kPa, x2 = 0.8998 | 17.4645 kg/m3
274.99 K, 4076.7 kPa, x2 = 0.8 | 35.4308 kg/m3
274.99 K, 6021.2 kPa, x2 = 0.8 | 54.1463 kg/m3
274.99 K, 6055.4 kPa, x2 = 0.8998 | 51.8525 kg/m3
274.99 K, 8019.2 kPa, x2 = 0.8 | 74.4425 kg/m3
274.99 K, 10017 kPa, x2 = 0.8 | 95.4954 kg/m3
274.99 K, 11989 kPa, x2 = 0.8 | 116.514 kg/m3 and 116.518 kg/m3
274.99 K, 14080 kPa, x2 = 0.8 | 138.416 kg/m3
274.99 K, 15091 kPa, x2 = 0.8998 | 145.151 kg/m3
274.99 K, 15497 kPa, x2 = 0.8 | 152.681 kg/m3
274.99 K, 16131 kPa, x2 = 0.8 | 158.862 kg/m3 and 158.861 kg/m3
274.99 K, 16805 kPa, x2 = 0.8998 | 161.533 kg/m3 and 161.536 kg/m3
274.99 K, 17724 kPa, x2 = 0.8998 | 169.816 kg/m3
274.99 K, 17726 kPa, x2 = 0.8998 | 169.823 kg/m3
275 K, 2005.1 kPa, x2 = 0.8998 | 15.7688 kg/m3
275 K, 4053.8 kPa, x2 = 0.8998 | 33.2951 kg/m3
275 K, 6055.4 kPa, x2 = 0.8998 | 51.8523 kg/m3
275 K, 8023.2 kPa, x2 = 0.8998 | 71.384 kg/m3
275 K, 10028 kPa, x2 = 0.8998 | 92.2879 kg/m3
275 K, 11444 kPa, x2 = 0.8998 | 107.355 kg/m3
275 K, 13322 kPa, x2 = 0.8998 | 127.156 kg/m3
299.91 K, 2564.5 kPa, x2 = 0.8 | 19.5987 kg/m3 and 19.5993 kg/m3
299.91 K, 4995 kPa, x2 = 0.8 | 39.306 kg/m3
